Experimental data taken from US9770439B2, “Hepatitis C virus inhibitors” (priority 2013, dated 2017).
Read-outs that look alike come from different tables or passages of the source.

Key:
[1] = tested on: HCV replicon, genotype 1a L31V variant with leucine 31 changed to valine in the NS5A protein; assay type: cell-based; conditions: for Fold - Synergistic G-1a (L31V): genotype 1a L31V replicon, test compound titrated with compound N47 fixed at 200 nM versus titrated singly
[2] = tested on: HCV replicon, genotype 1a Y93H variant with tyrosine 93 changed to histidine in the NS5A protein; assay type: cell-based; conditions: for Fold - Synergistic G-1a (Y93H): genotype 1a Y93H replicon, test compound titrated with compound N47 fixed at 200 nM versus titrated singly
Description: Combinations can be examined for synergistic activity using a variety of putative NS5A-targeting compounds and a variety of test compounds. […] The test compound can be chosen from compounds exemplified below, which were prepared by methods known in the art, or from others disclosed in the literature.
Similarly, BMS-790052 can be tested singly and in combination with a fixed amount of compound N47 in the HCV replicon cell based assay consisting of the genotype 1a Y93H variant with tyrosine 93 changed to histidine in the NS5A protein.

[3] = tested on: HCV replicon, genotype-1a variant with glutamine 30 changed to glutamate in the NS5A protein; assay type: cell-based
Excerpt: The NS5A synergistic inhibitory effect of test compounds can be determined using various amounts of an NS5A-targeting compound with titration of a second compound of interest. […] In one embodiment, the HCV genotype strain can be genotype 1a containing a change at amino acid 30 of the NS5A protein consisting of glutamine to glutamate. The test compound can be chosen from compounds listed above or from others present in the literature.

[4] = tested on: HCV replicon, genotype-1a variant with glutamine 30 changed to glutamate in the NS5A protein; conditions: cited from earlier work; for EC50: genotype 1a Q30E replicon
[5] = compound alone, read-out: EC50, titrated singly
[6] = ranking of synergist activity, test compound titrated with BMS-790052 fixed at 200 nM, genotype 1a Q30E replicon

SMILES | Fold - Synergistic G-1a (L31V) [1] [Fold] | Fold - Synergistic G-1a (Y93H) [2] [Fold] | Fold-Synergistic 1a (Q30E) [3] | also measured
COC(=O)N[C@@H](C(=O)N1CCC[C@H]1c1nc2ccc(C3=NCC(c4ccc(N5CCOCC5)cc4)O3)cc2[nH]1)c1ccccc1 (stereo partly shown) | <10 | <10 |  | 
COC(=O)N[C@@H](C(=O)N1CCCC1c1ncc(-c2ccc(-c3ccc(-c4cnc([C@@H]5CCCN5C(=O)[C@H]5CCCO5)[nH]4)cc3)cc2)[nH]1)c1ccccc1 (stereo partly shown) | <10 | <10 |  | 
CN(C)[C@@H](C(=O)N1CCC[C@H]1C1=NC(c2ccc(OCc3ccc(-c4c[nH]c([C@@H]5CCCN5C(=O)[C@@H](c5ccccc5)N(C)C)n4)cc3)cc2)CN1)c1ccccc1 (stereo partly shown) | <10 | <10 |  | 
CN(C)[C@H](C(=O)N1CCCC[C@H]1c1ncc(-c2ccc(-c3ccc(-c4cnc([C@@H]5CCCCN5C(=O)[C@@H](c5ccccc5)N(C)C)[nH]4)cc3)cc2)[nH]1)c1ccccc1 | <10 | >10 |  | 
COC(=O)N[C@H](C(=O)N1[C@H]2C[C@@]2(C)C[C@H]1c1ncc(-c2ccc(-c3ccc(-c4cnc([C@@H]5C[C@@H]6C[C@@H]6N5C(=O)[C@@H](NC(=O)OC)C(C)C)[nH]4)cc3)cc2)[nH]1)C(C)C | >100 | >100 |  | 
COC(=O)N[C@H](C(=O)N1C[C@@H](C)CC1c1ncc(-c2ccc(-c3ccc4cc(-c5cnc([C@@H]6C[C@H](C)CN6C(=O)[C@@H](NC(=O)OC)C(C)C)[nH]5)ccc4c3)cc2)[nH]1)C(C)C (stereo partly shown) | <10 | >10 |  | 
COC(=O)N[C@H](C(=O)N1C[C@H](C)C[C@H]1c1ncc(-c2ccc(-c3ccc4cc(-c5cnc([C@@H]6C[C@@H](C)CN6C(=O)[C@@H](NC(=O)OC)C(C)C)[nH]5)ccc4c3)cc2)[nH]1)C(C)C | <10 | >10 |  | 
COC(=O)N[C@H](C(=O)N1CCCC1c1cn(-c2ccc(-c3ccc(-n4cnc([C@@H]5CCCN5C(=O)[C@@H](NC(=O)OC)C(C)C)c4)cc3)cc2)cn1)C(C)C (stereo partly shown) | >10 | >10 |  | 
COC(=O)N[C@H](C(=O)N1C(c2ncc(-c3ccc(-c4cc5cc(-c6c[nH]c([C@@H]7C[C@H]8C[C@H]8N7C(=O)[C@@H](NC(=O)OC)C7CCOCC7)n6)ccc5o4)cc3)[nH]2)C[C@H]2C[C@H]21)C1CCOCC1 (stereo partly shown) | <10 | <10 |  | 
COC(=O)N[C@H](C(=O)N1C2C[C@@H]2C[C@H]1c1ncc(-c2ccc(C#Cc3ccc(-c4cnc([C@@H]5C[C@H]6C[C@H]6N5C(=O)[C@@H](NC(=O)OC)C(C)C)[nH]4)cc3)cc2)[nH]1)C(C)C (stereo partly shown) | <10 | >10 |  | 
COc1ccccc1C(O)C1(C(=O)N[C@H](c2nc(-c3ccc(-c4ccc(-c5c[nH]c([C@@H](NC(=O)C6(C(O)c7ccccc7OC)CC6)C(C)(C)C)n5)cc4)cc3)c[nH]2)C(C)(C)C)CC1 (single isomer, unassigned) [Compound N-135A] |  |  | >100 | 
COc1ccccc1C(O)C1(C(=O)N[C@H](c2nc(-c3ccc(-c4ccc(-c5c[nH]c([C@@H](NC(=O)C6(C(O)c7ccccc7OC)CC6)C(C)(C)C)n5)cc4)cc3)c[nH]2)C(C)(C)C)CC1 (single isomer, unassigned) [Compound N-135B] |  |  | >100 | 
COc1ccccc1C(O)C1(C(=O)N[C@H](c2nc(-c3ccc(-c4ccc(-c5c[nH]c([C@@H](NC(=O)C6(C(O)c7ccccc7OC)CC6)C(C)(C)C)n5)cc4)cc3)c[nH]2)C(C)(C)C)CC1 (single isomer, unassigned) [Compound N-135C] |  |  | >100 | 
COC(C)(CCO)C(=O)N[C@H](c1nc(-c2ccc(-c3ccc(-c4c[nH]c([C@@H](NC(=O)C(C)(CCO)OC)C(C)(C)C)n4)cc3)cc2)c[nH]1)C(C)(C)C (single isomer, unassigned) [Compound W-258] |  |  | >100 | 
COC(C)(CCO)C(=O)N[C@H](c1nc(-c2ccc(-c3ccc(-c4cnc([C@@H](NC(=O)C(C)(CCO)OC)C(C)(C)C)[nH]4)cc3)cc2)c[nH]1)C(C)(C)C (single isomer, unassigned) [Compound W-259] |  |  | >100 | 
COC(=O)N[C@H](C(=O)N1CCC[C@H]1c1ncc(-c2ccc(-c3ccc(-c4cnc([C@@H]5CCCN5C(=O)[C@@H](NC(=O)OC)C(C)C)[nH]4)cc3)cc2)[nH]1)C(C)C [BMS-790052, reference compound] |  |  |  | synergistic inhibitory effect with the combination (fold) ([1]; BMS-790052 titrated with N47 fixed at 200 nM, genotype 1a L31V): > 100 fold; reciprocal synergistic inhibitory effect for the combination (fold) ([4]; BMS-790052 titrated with P-55 fixed at 200 nM, genotype 1a Q30E): ~100 fold; EC50 ([4]; P-55 fixed at 200 nM, read-out: EC50 of BMS-790052 in the presence of a fixed amount of P-55): ~2 nM; EC50 [4, 5]: ~200 nM; synergistic inhibitory effect for the combination (fold) ([2]; BMS-790052 titrated with N47 fixed at 200 nM, genotype 1a Y93H): > 100 fold
CC1([C@H](NC(=O)C2CCC(F)(F)CC2)c2cc3ccc(C#Cc4ccc5nc([C@@H](NC(=O)C6CCC(F)(F)CC6)C6(C)CC6)[nH]c5c4)cc3[nH]2)CC1 [Compound B67] |  |  | >100 | 
CC(C)CC(=O)N[C@H](c1ncc(-c2ccc(-c3ccc(-c4cnc([C@@H](NC(=O)CC(C)C)C(C)C)[nH]4)cc3)cc2)[nH]1)C(C)C [Compound P-55] |  |  |  | synergistic inhibitory effect with the combination (fold) ([4]; P-55 titrated with BMS-790052 fixed at 200 nM, genotype 1a Q30E): > 100 fold; EC50 ([4]; BMS-790052 fixed at 200 nM, read-out: EC50 of P-55 in the presence of a fixed amount of BMS-790052): ~2 nM; EC50 [4, 5]: > 200 nM
O=C(C(=O)N1C(c2nc(-c3ccc(-c4ccc(-c5c[nH]c(C6C[C@@H]7C[C@@H]7N6C(=O)C(=O)N6CCC(F)(F)CC6)n5)cc4)cc3)c[nH]2)C[C@@H]2C[C@@H]21)N1CCC(F)(F)CC1 (stereo partly shown) [Compound W-243] |  |  | >100 | 
CCOC(=O)NC1(C(=O)N[C@H](c2nc(-c3ccc(-c4ccc(-c5c[nH]c([C@@H](NC(=O)C6(NC(=O)OCC)CCCCC6)C(C)(C)C)n5)cc4)cc3)c[nH]2)C(C)(C)C)CCCCC1 [Compound W-250] |  |  | >100 | 
CC(C)(C)C(=O)NC(c1ncc(-c2ccc(-c3ccc(-c4cnc([C@@H](NC(=O)C(C)(C)C)C5(C)CCC5)[nH]4)cc3)cc2)[nH]1)C1(C)CCC1 (stereo partly shown) [Compound Y-39] |  |  | >100 | 
CC(C)(C)C(=O)N[C@H](c1ncc(-c2ccc(-c3ccc(-c4cnc([C@@H](NC(=O)C(C)(C)C)C(C)(C)CF)[nH]4)cc3)cc2)[nH]1)C(C)(C)CF [Compound Y-68] |  |  |  | Fold-Synergistic 1a (Q30E) [3, 6]: >100
CC1([C@H](NC(=O)[C@]2(C)CCCC[C@@H]2O)c2ncc(-c3ccc(-c4ccc(-c5cnc([C@@H](NC(=O)[C@]6(C)CCCC[C@@H]6O)C6(C)CC6)[nH]5)cc4)cc3)[nH]2)CC1 [Compound Y-116] |  |  | >100 | 
COC(c1ccccc1)C1(C(=O)N[C@H](c2nc(-c3ccc(-c4ccc(-c5c[nH]c([C@@H](NC(=O)C6(C(OC)c7ccccc7)CC6)C(C)(C)C)n5)cc4)cc3)c[nH]2)C(C)(C)C)CC1 (stereo partly shown) [Example N-137] |  |  |  | Fold-Synergistic 1a (Q30E) [3, 6]: <10
